# Results taken from patent US20240100065A1, “METHODS FOR TREATING RECEPTOR-INTERACTING PROTEIN KINASE 1-MEDIATED DISEASES” (Genzyme Corporation, priority 2022, published 2024).
# Assay: Safety and tolerability (TEAEs, PCSAs, laboratory tests) in phase 1 study Parts 1a, 1b, 2
# Type: in vivo, healthy adult participants (human)
# Conditions: for ALT increase: Part 1b 10 mg
# Procedure: This single ascending dose (SAD) study consisted of three parts: Part 1a, which is a phase 1, randomized, placebo-controlled, double-blind, sequential ascending single dose study; Part 1b, which is phase 1, open-label, sequential single dose study; and Part 2, which is an ascending 14-day repeated oral dose study.
# Part 1a evaluated 4 sequential ascending dose levels of Compound 1 under fasted conditions: 10 mg, 20 mg, 30 mg, and 40 mg, each dose per cohort. Participants were fasted overnight for at least 8 hours before the morning dose and 2 hours after dosing.
# Part 1b is an open-label study with two single dose levels of Compound 1, previously tested for safety/tolerability in SAD cohorts of Part 1a, were selected (10 mg and 40 mg) and sequentially administered under a fed condition, each dose per cohort. Participants were fasted overnight for at least 8 hours, and then fed with a light breakfast approximately 30 minutes before Compound 1 dosing. In both Part 1a and 1b, all participants received one single dose of treatment.
# Part 2 was a randomized, double-blind, placebo-controlled study that evaluated 14-day multiple ascending oral doses of Compound 1 once daily (OD) or twice daily (BID) regimen under fasted conditions: 10 mg QD, 20 mg QD, 15 mg BID, and 20 mg BID. Participants fasted overnight for at least 8 hours before the morning dose and 2 hours after dosing on Day 1 and Day 14. All other morning doses were administered after an overnight fast and approximately 30 minutes before a breakfast snack. Sentinel dosing approach was followed where two of ten participants in each cohort were dosed the first day (n=1, Compound; n=1, placebo) in advance of the full cohort. The remaining 8 participants from each cohort were randomized to receive either Compound or placebo (randomized 7:1) on the following days with at least 48-hour interval from dosing of the sentinel participants, allowing a safety evaluation at the predicted steady state.
# Safety and tolerability were assessed by physical examination, neurological examination, monitoring adverse events (AEs) and potentially clinically significant abnormalities (PCSAs) in clinical laboratory tests (hematology, clinical chemistry, and urinalysis), vital signs (body temperature, blood pressure and heart rate), and ECG parameters (heart rate, RR, PR, QRS, QT, QTcF, QTcB intervals) measured in the standard 12-lead ECG or ECGs extracted from 24-hour Holter ECG data.
# Safety population included all participants who received at least one dose of study intervention (Compound 1 or placebo). All safety assessments (AEs, laboratory parameters, vital signs) were based on the review of individual values and were summarized using descriptive statistics. Safety analysis was focused on treatment-emergent period, defined as the time from the first investigational medicinal product (IMP) administration up to the end of study visit (included). AEs were coded according to the Medical Dictionary for Regulatory Activities (MedDRA, version 23.1 in Part 1a and Part 1b; version 24 in Part 2). Severity was graded from Grade 1 to 4 according to the Food and Drug Administration (FDA) Guidance for Industry. Number (%) of participants experiencing TEAEs and potentially clinically significant abnormality (PCSAs) in clinical chemistry, vital signs, and ECGs were summarized by dose level group.
compound,measurement,setting,value
"CC(C)(C(=O)N1CCOc2c(C#N)cncc2C1)C(F)F [Compound 1, 4-(3,3-difluoro-2,2-dimethyl-propanoyl)-3,5-dihydro-2H-pyrido[3,4-f] [1,4]oxazepine-9-carbonitrile]","TEAE Eye disorders, participants",Part 1a single 40 mg fasted,0 n
same,"TEAE Fatigue, participants",Part 1a single 40 mg fasted,0 n
same,"TEAE General disorders and administration site conditions, participants",Part 1a single 40 mg fasted,1 n
same,"TEAE Headache, participants",Part 1a single 40 mg fasted,0 n
same,"TEAE Investigations, participants",Part 1a single 40 mg fasted,0 n
same,"TEAE Keratitis, participants",Part 1a single 40 mg fasted,0 n
same,"TEAE Medical device site dermatitis, participants",Part 1a single 40 mg fasted,0 n
same,"TEAE Musculoskeletal and connective tissue disorders, participants",Part 1a single 40 mg fasted,1 n
same,"TEAE Myalgia, participants",Part 1a single 40 mg fasted,1 (16.7) n
same,"TEAE Nervous system disorders, participants",Part 1a single 40 mg fasted,1 n
same,"TEAE Presyncope, participants",Part 1a single 40 mg fasted,0 n
same,"TEAE Skin and subcutaneous tissue disorders, participants",Part 1a single 40 mg fasted,1 n
same,"TEAE Skin irritation, participants",Part 1a single 40 mg fasted,0 n
same,"TEAE Tachycardia, participants",Part 1a single 40 mg fasted,0 n
same,"TEAE Thrombophlebitis, participants",Part 1a single 40 mg fasted,0 n
same,"TEAE Vascular disorders, participants",Part 1a single 40 mg fasted,0 n
same,"TEAE Ventricular extrasystoles, participants",Part 1a single 40 mg fasted,1 n
same,"TEAE Vessel puncture site hypoaesthesia, participants",Part 1a single 40 mg fasted,1 n
same,"TEAE Vessel puncture site pain, participants",Part 1a single 40 mg fasted,1 n
same,"PCSAs (hematology, clinical chemistry, vital signs, ECG), relevance","Part 1a, all Compound 1 groups",not clinically relevant
same,Participants with at least one TEAE,"Part 1a, all Compound 1 groups, out of 24",9 participants
same,SAEs or AESIs,"Part 1a, single 10-40 mg fasted",no SAEs or AESIs
same,ALT increase,"one participant, Day 2",1.5 fold ULN
same,ALT increase,"one participant, Day 7 (end-of-study visit)",2.4 fold ULN
same,Participants with at least one TEAE,"Part 1b overall, out of 12",10 participants
same,"Any Grade ≥3 TEAE, participants",Part 1b single 10 mg fed,0 n
same,"Any TEAE, participants",Part 1b single 10 mg fed,4 n
same,"Any treatment-emergent AESI, participants",Part 1b single 10 mg fed,1 n
same,"Any treatment-emergent SAE, participants",Part 1b single 10 mg fed,0 n
same,"TEAE Alanine aminotransferase increased, participants",Part 1b single 10 mg fed,1 n
same,"TEAE Back pain, participants",Part 1b single 10 mg fed,1 n
same,"TEAE Cerebrospinal fluid leakage, participants",Part 1b single 10 mg fed,1 n
same,"TEAE Coccydynia, participants",Part 1b single 10 mg fed,0 n
same,"TEAE Constipation, participants",Part 1b single 10 mg fed,0 n
same,"TEAE Dizziness, participants",Part 1b single 10 mg fed,0 n
same,"TEAE Gastrointestinal disorders, participants",Part 1b single 10 mg fed,1 n
same,"TEAE Headache, participants",Part 1b single 10 mg fed,3 n
same,"TEAE Investigations, participants",Part 1b single 10 mg fed,1 n
same,"TEAE Musculoskeletal and connective tissue disorders, participants",Part 1b single 10 mg fed,1 n
same,"TEAE Nausea, participants",Part 1b single 10 mg fed,1 n
same,"TEAE Nervous system disorders, participants",Part 1b single 10 mg fed,4 n
same,"TEAE Polyuria, participants",Part 1b single 10 mg fed,0 n
same,"TEAE Radiculopathy, participants",Part 1b single 10 mg fed,0 n
same,"TEAE Renal and urinary disorders, participants",Part 1b single 10 mg fed,0 n
same,"TEAE Vomiting, participants",Part 1b single 10 mg fed,1 n
same,"Any Grade ≥3 TEAE, participants",Part 1b single 40 mg fed,1 n
same,"Any TEAE, participants",Part 1b single 40 mg fed,6 n
same,"Any treatment-emergent AESI, participants",Part 1b single 40 mg fed,0 n
same,"Any treatment-emergent SAE, participants",Part 1b single 40 mg fed,1 n
same,"TEAE Alanine aminotransferase increased, participants",Part 1b single 40 mg fed,0 n
same,"TEAE Back pain, participants",Part 1b single 40 mg fed,2 n
same,"TEAE Cerebrospinal fluid leakage, participants",Part 1b single 40 mg fed,3 (50.0) n
same,"TEAE Coccydynia, participants",Part 1b single 40 mg fed,1 n
same,"TEAE Constipation, participants",Part 1b single 40 mg fed,1 n
same,"TEAE Dizziness, participants",Part 1b single 40 mg fed,1 n
same,"TEAE Gastrointestinal disorders, participants",Part 1b single 40 mg fed,2 n
same,"TEAE Headache, participants",Part 1b single 40 mg fed,4 n
same,"TEAE Investigations, participants",Part 1b single 40 mg fed,0 n
same,"TEAE Musculoskeletal and connective tissue disorders, participants",Part 1b single 40 mg fed,2 n
same,"TEAE Nausea, participants",Part 1b single 40 mg fed,1 n
same,"TEAE Nervous system disorders, participants",Part 1b single 40 mg fed,5 n
same,"TEAE Polyuria, participants",Part 1b single 40 mg fed,1 n
same,"TEAE Radiculopathy, participants",Part 1b single 40 mg fed,1 n
same,"TEAE Renal and urinary disorders, participants",Part 1b single 40 mg fed,1 n
same,"TEAE Vomiting, participants",Part 1b single 40 mg fed,1 n
same,"PCSAs (vital signs, ECG), relevance","Part 1b, all Compound 1 groups",not clinically relevant
same,"Any Grade ≥3 TEAE, participants",Part 2 10 mg QD 14 days,0 n
same,"Any TEAE, participants",Part 2 10 mg QD 14 days,4 n
same,"Any treatment-emergent AESI, participants",Part 2 10 mg QD 14 days,0 n
same,"Any treatment-emergent SAE, participants",Part 2 10 mg QD 14 days,0 n
same,"TEAE Nervous system disorders, participants","Part 2 10 mg QD, out of 8",2 participants
same,"Any Grade ≥3 TEAE, participants",Part 2 15 mg BID 14 days,0 n
same,"Any TEAE, participants",Part 2 15 mg BID 14 days,6 n
same,"Any treatment-emergent AESI, participants",Part 2 15 mg BID 14 days,1 n
same,"Any treatment-emergent SAE, participants",Part 2 15 mg BID 14 days,0 n
same,ALT increase (AESI),"Part 2 15 mg BID, one participant, Day 9",2.29 ULN
same,"ALT increase (AESI), highest","Part 2 15 mg BID, one participant, Day 15, 24 hours post last dosing",2.71 ULN
same,"TEAE Nervous system disorders, participants","Part 2 15 mg BID, out of 8",1 participants
same,"Any Grade ≥3 TEAE, participants",Part 2 20 mg BID 14 days,0 n
same,"Any TEAE, participants",Part 2 20 mg BID 14 days,4 n
same,"Any treatment-emergent AESI, participants",Part 2 20 mg BID 14 days,0 n
same,"Any treatment-emergent SAE, participants",Part 2 20 mg BID 14 days,0 n
same,"TEAE Nervous system disorders, participants","Part 2 20 mg BID, out of 8",2 participants
same,"Any Grade ≥3 TEAE, participants",Part 2 20 mg QD 14 days,0 n
same,"Any TEAE, participants",Part 2 20 mg QD 14 days,3 n
same,"Any treatment-emergent AESI, participants",Part 2 20 mg QD 14 days,0 n
same,"Any treatment-emergent SAE, participants",Part 2 20 mg QD 14 days,0 n
same,"TEAE Nervous system disorders, participants","Part 2 20 mg QD, out of 8",1 participants
same,SAE and severe TEAE (Grade ≥3),"Part 2, 14-day repeated doses",no serious adverse event (SAE) and no severe treatment-emergent adverse event
same,"PCSAs for vital signs and ECG parameters, relevance","Part 2, all groups",not clinically meaningful
same,"Safety and tolerability, overall","single dose up to 40 mg fasted and fed, up to 20 mg BID for 14 days",safe and well tolerated
